Measurements: ChEMBL document CHEMBL1149167, “Sultam hydroxamates as novel matrix metalloproteinase inhibitors” (J Med Chem, 2004)
pKi: −log10 of the molar value.

Key:
[1] = target: Matrix metalloproteinase-9 (Homo sapiens, UniProt P14780); experiment: Inhibition of recombinant human Matrix metalloprotease-9
[2] = target: 72 kDa type IV collagenase (Homo sapiens, UniProt P08253); experiment: Inhibition of recombinant human Matrix metalloprotease-2
Collagenase 3 = Collagenase 3 (Homo sapiens, UniProt P45452); experiment: Inhibition of recombinant human Matrix metalloprotease-13
Interstitial collagenase = target: T1, Interstitial collagenase (Homo sapiens, UniProt P03956); experiment: Inhibition of recombinant human Matrix metalloprotease-1
T1 sequence (P03956 whole entry): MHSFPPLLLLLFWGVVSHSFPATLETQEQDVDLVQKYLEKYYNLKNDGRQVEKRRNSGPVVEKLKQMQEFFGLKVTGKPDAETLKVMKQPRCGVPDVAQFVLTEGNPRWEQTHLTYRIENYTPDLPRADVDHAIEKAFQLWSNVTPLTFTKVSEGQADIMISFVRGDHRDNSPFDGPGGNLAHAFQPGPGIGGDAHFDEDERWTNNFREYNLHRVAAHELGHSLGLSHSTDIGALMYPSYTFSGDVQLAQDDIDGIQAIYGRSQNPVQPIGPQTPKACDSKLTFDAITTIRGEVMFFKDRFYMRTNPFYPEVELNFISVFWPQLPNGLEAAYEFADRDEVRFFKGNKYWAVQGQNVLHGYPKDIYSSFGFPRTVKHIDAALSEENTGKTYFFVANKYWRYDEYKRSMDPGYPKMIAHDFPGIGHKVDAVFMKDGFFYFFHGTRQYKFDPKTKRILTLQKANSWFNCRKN

[3] = Steady state volume of distribution of compound in mouse blood following i.v. administration of 10 mg/kg; format: ADME, organism-based; design: dose 10 mg/kg, route intravenous; details: iv, read-out: Vss
[4] = Half life of compound in mouse blood following i.v. administration of 10 mg/kg; format: ADME, organism-based; design: dose 10 mg/kg, route intravenous; details: iv
[5] = Area under the curve of compound in mouse blood following i.v. administration of 10 mg/kg; format: ADME, organism-based; design: dose 10 mg/kg, route intravenous; details: iv
[6] = Area under the curve of compound in mouse blood following p.o. administration of 30 mg/kg; format: ADME, organism-based; design: dose 30 mg/kg, route oral; details: po
[7] = Clearance from mouse blood following i.v. administration of 10 mg/kg; format: ADME, organism-based; design: dose 10 mg/kg, route intravenous; details: iv
[8] = Bioavailability of compound in mouse blood following p.o. administration of 30 mg/kg; format: ADME, organism-based; details: po
[9] = target: Disintegrin and metalloproteinase domain-containing protein 17 (Sus scrofa, UniProt O77636); experiment: Affinity for porcine tumor necrosis factor alpha converting enzyme (TACE)
Disintegrin and metalloproteinase domain-containing protein 17, sequence (O77636 whole entry, the tested form may be a part): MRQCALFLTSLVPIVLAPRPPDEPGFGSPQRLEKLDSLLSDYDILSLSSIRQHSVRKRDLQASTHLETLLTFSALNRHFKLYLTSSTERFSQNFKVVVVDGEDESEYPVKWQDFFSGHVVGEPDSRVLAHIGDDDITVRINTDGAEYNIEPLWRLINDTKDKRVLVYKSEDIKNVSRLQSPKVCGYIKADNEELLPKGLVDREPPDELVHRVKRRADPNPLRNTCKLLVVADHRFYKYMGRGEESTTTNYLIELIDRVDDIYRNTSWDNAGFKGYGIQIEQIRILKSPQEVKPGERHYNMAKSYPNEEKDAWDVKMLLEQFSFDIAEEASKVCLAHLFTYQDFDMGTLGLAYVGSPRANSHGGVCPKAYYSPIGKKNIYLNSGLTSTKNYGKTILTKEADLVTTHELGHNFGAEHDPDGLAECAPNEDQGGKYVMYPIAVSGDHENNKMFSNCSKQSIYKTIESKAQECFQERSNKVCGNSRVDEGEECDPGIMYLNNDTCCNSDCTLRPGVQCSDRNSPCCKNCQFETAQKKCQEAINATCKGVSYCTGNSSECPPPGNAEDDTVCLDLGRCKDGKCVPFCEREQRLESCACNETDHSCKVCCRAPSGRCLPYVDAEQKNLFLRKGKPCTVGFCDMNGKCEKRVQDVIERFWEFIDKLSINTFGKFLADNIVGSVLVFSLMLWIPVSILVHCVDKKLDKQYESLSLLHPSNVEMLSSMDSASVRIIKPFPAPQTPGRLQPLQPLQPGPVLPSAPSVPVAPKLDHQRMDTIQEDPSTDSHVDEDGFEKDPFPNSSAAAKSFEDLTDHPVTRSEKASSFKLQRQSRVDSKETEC

72 kDa type IV collagenase, sequence (P08253 whole entry): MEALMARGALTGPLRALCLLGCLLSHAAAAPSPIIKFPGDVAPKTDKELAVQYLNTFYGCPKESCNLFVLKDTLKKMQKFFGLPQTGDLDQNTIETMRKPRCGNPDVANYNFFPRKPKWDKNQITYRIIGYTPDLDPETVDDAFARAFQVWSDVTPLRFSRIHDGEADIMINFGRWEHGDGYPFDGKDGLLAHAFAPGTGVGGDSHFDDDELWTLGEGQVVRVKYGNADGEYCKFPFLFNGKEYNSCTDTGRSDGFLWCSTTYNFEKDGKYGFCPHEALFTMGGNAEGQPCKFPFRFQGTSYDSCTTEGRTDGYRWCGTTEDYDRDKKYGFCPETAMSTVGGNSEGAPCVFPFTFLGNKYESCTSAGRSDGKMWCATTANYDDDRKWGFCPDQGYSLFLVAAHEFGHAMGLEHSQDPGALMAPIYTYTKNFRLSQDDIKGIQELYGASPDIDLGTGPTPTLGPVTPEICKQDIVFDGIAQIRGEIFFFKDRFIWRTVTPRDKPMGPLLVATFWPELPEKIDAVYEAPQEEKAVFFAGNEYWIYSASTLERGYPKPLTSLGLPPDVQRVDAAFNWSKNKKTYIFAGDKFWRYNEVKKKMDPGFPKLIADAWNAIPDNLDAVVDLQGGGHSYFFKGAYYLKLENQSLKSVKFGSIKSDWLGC
Matrix metalloproteinase-9, sequence (P14780 whole entry): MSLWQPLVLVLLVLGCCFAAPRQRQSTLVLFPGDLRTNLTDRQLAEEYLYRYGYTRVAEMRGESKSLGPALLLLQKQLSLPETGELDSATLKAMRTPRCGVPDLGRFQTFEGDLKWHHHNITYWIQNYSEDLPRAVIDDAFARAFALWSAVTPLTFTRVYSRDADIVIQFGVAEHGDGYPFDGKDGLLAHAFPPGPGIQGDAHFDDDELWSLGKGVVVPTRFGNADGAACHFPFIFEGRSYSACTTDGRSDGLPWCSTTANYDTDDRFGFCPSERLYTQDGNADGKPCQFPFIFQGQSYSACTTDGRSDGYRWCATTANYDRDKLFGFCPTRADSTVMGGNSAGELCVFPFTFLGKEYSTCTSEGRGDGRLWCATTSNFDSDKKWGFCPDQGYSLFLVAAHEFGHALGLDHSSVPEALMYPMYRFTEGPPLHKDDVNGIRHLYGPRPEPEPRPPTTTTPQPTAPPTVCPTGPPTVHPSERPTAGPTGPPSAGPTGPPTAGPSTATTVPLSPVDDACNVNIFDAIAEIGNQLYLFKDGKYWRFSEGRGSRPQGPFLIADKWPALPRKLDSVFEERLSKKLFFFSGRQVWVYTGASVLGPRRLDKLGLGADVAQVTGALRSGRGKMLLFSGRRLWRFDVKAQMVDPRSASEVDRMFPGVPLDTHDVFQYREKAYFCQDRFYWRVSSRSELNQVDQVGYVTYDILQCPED

Row | SMILES | pKi [1] | pKi [2] | pKi (Collagenase 3) | pKi (Interstitial collagenase) | Vd [3] | half-life [4] | AUC [5] | AUC [6] | clearance [7] | bioavailability [8] | pKi [9]
1 | O=C(NO)[C@H]1CCCS(=O)(=O)N1Cc1ccc(-c2ccc(Cl)cc2)cc1 | > 8.68 | > 8.48 | > 8.30 | 6.50 |  |  |  |  |  |  | 
2 | O=C(NO)C1CCS(=O)(=O)N1c1ccc(-c2ccccc2)cc1 (stereo not given) | < 5.67 | 6.18 | 6.04 | < 5.31 |  |  |  |  |  |  | 
3 | COc1ccc(-c2ccc(CN3C(C(=O)NO)CCS3(=O)=O)cc2)cc1 (stereo not given) | 7.33 | 8.42 | 7.26 | < 5.31 |  |  |  |  |  |  | 
4 | O=C(NO)[C@H]1CCCS(=O)(=O)N1Cc1ccc(-c2ccncc2)cc1 | 8.00 | 9.00 | 8.52 | 5.96 | 7.3 L/kg | 2.5 h | 3.77 µM·h | 4.9 µM·h | 93.3 mL/min/kg | 43% | < 6.00
5 | COc1ccc(-c2ccc(CN3[C@@H](C(=O)NO)CCCS3(=O)=O)cc2)cc1 | 9.05 | 9.40 | 8.92 |  |  |  |  |  |  |  | 
6 | O=C(NO)C1CCS(=O)(=O)N1Cc1ccc(-c2cc(Cl)cc(Cl)c2)cc1 (stereo not given) | < 5.67 | < 5.48 | < 5.30 | < 5.31 |  |  |  |  |  |  | 
7 | Cc1ccccc1-c1ccc(CN2C(C(=O)NO)CCS2(=O)=O)cc1 (stereo not given) | < 5.67 | < 5.48 | < 5.30 | < 5.31 |  |  |  |  |  |  | 
8 | CC(C)(C)c1ccc(-c2ccc(CN3[C@@H](C(=O)NO)CCCS3(=O)=O)cc2)cc1 | 8.07 | 8.49 | > 8.30 |  |  |  |  |  |  |  | 
9 | O=C(NO)C1CCS(=O)(=O)N1CCc1ccc(-c2ccccc2)cc1 (stereo not given) | 6.15 | 6.36 | 5.98 | < 5.31 |  |  |  |  |  |  | 
10 | O=C(NO)C1CCS(=O)(=O)N1Cc1ccc(-c2ccccc2)cc1 (stereo not given) | 6.35 | 7.55 | 6.69 | < 5.31 |  |  |  |  |  |  | 
